Measurements published in PMC10666625, “Exploring the benefits of in-diet versus repeated oral dosing of saracatinib (AZD0530) in chronic studies: insights into pharmacokinetics and animal welfare” (Frontiers in Veterinary Science, 2023).

Experiments:
[1] = design: method as in PMID 19775203; settings: healthy humans, 250 mg/day once daily for 10–14 days; cited from earlier work
[2] = test system: organophosphate (OP) induced epilepsy models; design: method as in PMID 35052568; settings: treatment for a week; cited from earlier work
[3] = Stability at room temperature in solution or in diet by LC-MS/MS; format: physicochemical
Description: Samples were submitted to the W.M. Keck Metabolomics Research Laboratory (Office of Biotechnology, Iowa State University, Ames, IA) for targeted saracatinib LC–MS/MS quantification. One or two food pellets (1.5–3 g) were homogenized by mortar-and-pestle before being transferred and weighed in glass tubes with Teflon-lined screw caps. A reagent control sample was generated for each sample batch which was prepared in the same fashion as the samples. The weighed samples were then spiked with the internal standard, 250 μg of S-Hexylglutathione (Sigma-Aldrich CO., St. Louis, MO), added as 1.0 mL of from a 0.25 mg/mL solution in LC–MS grade 9:1 methanol: acetonitrile (Fisher Scientific, Waltham, MA). The extraction was initiated by the addition of 8 mL of 90% LC–MS grade methanol with 10% LC–MS grade water (Fisher Scientific, Waltham, MA). […]
LC separations were performed with an Agilent Technologies 1,290 Infinity Binary Pump UHPLC instrument equipped with an Agilent Technologies Eclipse C18 1.8 μm 2.1 mm × 100 mm analytical column that was coupled to an Agilent Technologies 6,540 UHD Accurate-Mass Q-TOF mass spectrometer (Agilent Technologies, Santa Clara, CA). […] Saracatinib was detected using electrospray ionization in positive ionization mode. […] During LC–MS data acquisition, reference masses were monitored for continuous mass calibration: m/z 121.050873 with m/z 922.009698. […]

ABCB1 = test system: ABCB1; design: method as in PMID 22623106; settings: cited from earlier work
[4] = Hippocampal concentrations after a single oral dose (24 h study); format: in vivo, Sprague Dawley rats; settings: single oral dose 20 mg/kg
Description: (§1) The animals were randomized into four experimental groups (n = 4–8). In group 1 (24 h study; Figure 1A), eight animals received a single oral gavage of saracatinib (20 mg/kg), and the blood sampling was done at 0.5, 1, 2, 4, 6, 8, 12, and 24 h post-treatment. Four animals each were euthanized at 4 h and 24 h, respectively. In group 2 (7-day repeated oral dosing study; Figure 1B), eight animals received repeated daily oral dosing of saracatinib (20 mg/kg of rat) at 24 h intervals; the blood sampling was done daily at 24 h intervals before the next dosing. Four animals were euthanized 24 h after the third repeated oral dosing, i.e., day 3 and the other four animals were euthanized at day 7. Group 3 (7-day SAR-in-Diet study; Figure 1C), received a single oral gavage of saracatinib (20 mg/kg of rat) followed by 24 h later SAR-in-Diet for 7 days (260 ppm). The blood sampling was done at 24 h post oral and daily at 24 h intervals for 7 days while the animals were on SAR-in-Diet. Four animals each were euthanized on day 3 and 7. Group 4 (Figure 1D) included four animals that were given 7 repeated doses of oral saracatinib (20 mg/kg/day for a week) followed by ad-libitum SAR-in-Diet at varying concentrations fed for up to 18 weeks (260 ppm diet for 2 weeks, 210 ppm diet for a week, 160 ppm for 4 weeks, and 50 ppm diet for 11 weeks) The tapering concentrations of saracatinib in the diet from 260 to 50 ppm was done to target a daily saracatinib dose rate in the range of 20–5 mg/kg respectively, in a 24 h feeding cycle. Blood samples were collected at the end of each diet change.
(§2) Samples were submitted to the W.M. Keck Metabolomics Research Laboratory (Office of Biotechnology, Iowa State University, Ames, IA) for targeted saracatinib LC–MS/MS quantification. Serum and hippocampus preparations were conducted using a modified version of the previously available extraction and sample preparation methods previously established ([18], [19]). 50–75 μL or 50–75 mg wet weight of each sample was added to microcentrifuge tubes. […]

[5] = test system: kainate (KA) model of temporal lobe epilepsy; design: method as in PMID 34087381; settings: treating for a week, repeated oral dosing; cited from earlier work
[6] = 7-day repeated daily oral dosing study: serum and hippocampal concentrations; format: in vivo, Sprague Dawley rats
Description: as §1, §2

[7] = Serum pharmacokinetics after a single oral dose (24 h study), LC-MS/MS, noncompartmental analysis; format: in vivo, Sprague Dawley rats
Description: Twenty eight adult male Sprague Dawley rats (8 weeks old; 250-300 g; Charles River, United States) were used in the study. Animals were housed in individual cages with a 12-h light–dark cycle in an enriched environment. The experiments were conducted after 2–3 days of acclimatization as per the approved protocols by the Institutional Animal Care and Use Committees (IACUC protocol: 21–109) and complied with the NIH ARRIVE Guidelines for the Care and Use of Laboratory Animals. Blood sampling was done by retro-orbital puncture as per IACUC protocol. Maximal blood collection was limited to less than 7.5% of the […] in one week. The serum was separated by centrifugation at 1,000–1,500 × g for 10 min and stored at −80°C until further analysis. All animals were euthanized at the end of the study with pentobarbital sodium and phenytoin sodium (100 mg/kg, i.p.) as per the American Veterinary Medical Association Guidelines for euthanasia. Tissue samples were collected and stored at −80°C until further analysis.
as §1
Samples were submitted to the W.M. Keck Metabolomics Research Laboratory (Office of Biotechnology, Iowa State University, Ames, IA) for targeted saracatinib LC–MS/MS quantification. Serum and hippocampus preparations were conducted using a modified version of the previously available extraction and sample preparation methods previously established ([18], [19]). 50–75 μL or 50–75 mg wet weight of each sample was added to microcentrifuge tubes. A Reagent control sample was generated for each sample batch, 75 μL of 0.9% NaCl which was extracted in the same fashion as the samples. The weighed samples were then spiked with the internal standard, 1.25 μg of S-Hexylglutathione (Sigma-Aldrich CO., St. Louis, MO), added as 10 μL of from a 0.125 mg/mL solution in LC–MS grade 9:1 methanol: acetonitrile (Fisher Scientific, Waltham, MA). The extraction was initiated by the addition of 0.4 mL of 90% ice-cold LC–MS grade methanol with 10% LC–MS grade water (Fisher Scientific, Waltham, MA). For the hippocampus samples, after adding the 90% methanol to the samples, two 2.4 mm metal beads were added to each sample, the tissue was then homogenized using a Bead Mill 24 Homogenizer (Thermo Fisher Scientific, Inc., Waltham, MA, United States). […]

[8] = male, Sprague Dawley, single oral dose 20 mg/kg, rat serum, median, n=4

Structure (SMILES): CN1CCN(CCOc2cc(OC3CCOCC3)c3c(Nc4c(Cl)ccc5c4OCO5)ncnc3c2)CC1 [saracatinib, Saracatinib]
- T1/2 [1]: 40 h
- Tolerability [1]: well tolerated
- Protective effects [2]: limited
- Time stable at room temperature [3]: > 4 weeks
- Stability at room temperature (percent) ([3]; >4 weeks): 97 ± 1.56%
- Effect on ABCB1 (ABCB1): only inhibits ABCB1 transport function, without altering ABCB1 expression or AKT phosphorylation
- concentration at 4 h ([4]; male, Sprague Dawley, rat, hippocampus, 4 h, read-out: Hippocampal level): > 500 ng/g
- Hippocampal versus serum concentrations ([4]; 4 h and 24 h): higher than the serum concentrations
- Hippocampal concentration at 24 h compared to 4 h ([4]; 24 h): dropped to nearly half
- Long-term effects (reactive gliosis, neurodegeneration, epileptiform spiking, spontaneously recurring seizures) [5]: sufficient to mitigate long-term effects
- concentration at 3 day ([6]; male, Sprague Dawley, rat, hippocampus, repeated oral dosing 20 mg/kg/day, day 3, read-out: Hippocampal saracatinib concentration): 239 ± 143 ng/g
- concentration at 7 day ([6]; male, Sprague Dawley, rat, hippocampus, repeated oral dosing 20 mg/kg/day, day 7, read-out: Hippocampal saracatinib concentration): 271 ± 62.3 ng/g
- Serum saracatinib concentration (trough, 24 h after dose) ([6]; repeated daily oral dosing 20 mg/kg, first three days): ~ 100 ng/mL
- Time saracatinib was detected in the serum ([7]; after a single oral dose 20 mg/kg): up to 24 h
- Tmax ([7]; male, Sprague Dawley, rat, serum, po, 20 mg/kg, single oral dose 20 mg/kg, rat serum, median, n=4): 6 h
- AUC(0-t) ([7]; male, Sprague Dawley, single oral dose 20 mg/kg, rat serum, 0 to 24 h, median, n=4, read-out: AUC (0-tlast)): 6990 ng·h/mL
- AUC(0-inf) [7, 8]: 7060 ng·h/mL
- CL/F [7, 8]: 47.2 mL/min/kg
- Cmax [7, 8]: 954 ng/mL
- Vd/F [7, 8]: 15.6 L/kg
- half-life [7, 8]: 4.12 h
- k el [7, 8]: 5e-05 s⁻¹
